Test results reported in the NIST ThermoML archive (doi:10.1021/acs.jced.5b00285).

Conditions: 101.33 kPa, Liquid; for electrical conductivity: Alternating current cell with electrodes; for mass density: Vibrating tube method

CCCCCCCCn1cc[n+](C)c1.O=S(=O)([N-]S(=O)(=O)C(F)(F)F)C(F)(F)F
Conditions | electrical conductivity [S/m]
273.15 K | 0.0308
278.15 K | 0.0432
283.15 K | 0.059
288.15 K | 0.0784
293.15 K | 0.102
298.15 K | 0.131
303.15 K | 0.164
308.15 K | 0.204
313.15 K | 0.246
318.15 K | 0.298
323.15 K | 0.351
328.15 K | 0.415
333.15 K | 0.478
338.15 K | 0.556
343.15 K | 0.627
348.15 K | 0.72
353.15 K | 0.801
358.15 K | 0.906
368.15 K | 1.11
378.15 K | 1.34
388.15 K | 1.59
398.15 K | 1.85
408.15 K | 2.13
418.15 K | 2.42
428.15 K | 2.72
438.15 K | 3.04
448.15 K | 3.36
458.15 K | 3.69
468.15 K | 4.03

CCCCCC[n+]1ccn(C)c1.O=S(=O)([N-]S(=O)(=O)C(F)(F)F)C(F)(F)F
Conditions | electrical conductivity [S/m] | mass density [kg/m3] | viscosity [mPa·s]
278.15 K | 0.0776 | 1391.02 | 210.6
283.15 K | – | 1386.34 | –
288.15 K | 0.136 | 1381.65 | 116.7
293.15 K | – | 1376.98 | –
298.15 K | 0.218 | 1372.35 | 70.51
303.15 K | – | 1367.74 | –
308.15 K | 0.328 | 1363.15 | 45.51
313.15 K | – | 1358.58 | –
318.15 K | 0.466 | 1354.02 | 31.03
323.15 K | – | 1349.49 | –
328.15 K | 0.634 | 1344.97 | 22.14
333.15 K | – | 1340.47 | –
338.15 K | 0.83 | 1335.98 | 16.4
343.15 K | – | 1331.51 | –
348.15 K | 1.05 | 1327.05 | 12.59
353.15 K | – | 1322.61 | –
358.15 K | 1.3 | 1318.18 | 9.957
363.15 K | – | 1313.77 | –
368.15 K | 1.58 | – | 8.066
378.15 K | 1.88 | – | 6.673
388.15 K | 2.19 | – | 5.623
398.15 K | 2.53 | – | 4.819
408.15 K | 2.88 | – | 4.19
418.15 K | 3.24 | – | –
428.15 K | 3.62 | – | –
438.15 K | 4.01 | – | –
448.15 K | 4.41 | – | –
458.15 K | 4.82 | – | –
468.15 K | 5.24 | – | –

CCCCn1cc[n+](C)c1.O=S(=O)([N-]S(=O)(=O)C(F)(F)C(F)(F)F)C(F)(F)C(F)(F)F [1-butyl-3-methylimidazolium bis(perfluoroethylsulfonyl)imide]
Conditions | electrical conductivity [S/m] | mass density [kg/m3] | viscosity [mPa·s]
273.15 K | 0.0324 | 1539.6 | 579.1
278.15 K | 0.046 | 1534 | 398.8
283.15 K | 0.0634 | 1528.5 | 282.2
288.15 K | 0.0853 | 1523.88 | 205.3
293.15 K | 0.112 | 1518.55 | 153.3
298.15 K | 0.145 | 1513.25 | 115.9
303.15 K | 0.183 | 1507.96 | 89.72
308.15 K | 0.227 | – | –
313.15 K | 0.278 | 1497.47 | 56.57
318.15 K | 0.336 | – | –
323.15 K | 0.4 | 1487.06 | 37.86
328.15 K | 0.475 | – | –
333.15 K | 0.549 | 1476.73 | 26.63
338.15 K | 0.638 | – | –
343.15 K | 0.724 | 1466.47 | 19.48
348.15 K | 0.831 | – | –
353.15 K | 0.928 | 1456.27 | 14.74
358.15 K | 1.05 | – | –
363.15 K | – | 1446.14 | 11.48
368.15 K | 1.29 | – | –
378.15 K | 1.56 | – | –
388.15 K | 1.86 | – | –
398.15 K | 2.16 | – | –
408.15 K | 2.49 | – | –
418.15 K | 2.83 | – | –
428.15 K | 3.19 | – | –
438.15 K | 3.56 | – | –
448.15 K | 3.94 | – | –
458.15 K | 4.33 | – | –
468.15 K | 4.72 | – | –

CC(=O)[O-].CCn1cc[n+](C)c1 [1-ethyl-3-methylimidazolium acetate]
Conditions | electrical conductivity [S/m] | mass density [kg/m3] | viscosity [mPa·s]
278.15 K | – | 1111.95 | 701.2
288.15 K | – | 1105.67 | 288
298.15 K | 0.278 | 1099.44 | 141.1
308.15 K | 0.471 | 1093.24 | 78.27
318.15 K | 0.733 | 1087.13 | 47.69
328.15 K | 1.07 | 1081.09 | 31.26
338.15 K | 1.48 | 1075.11 | 21.77
348.15 K | 1.96 | 1069.17 | 16.01
358.15 K | 2.5 | 1063.3 | 12.19
368.15 K | 3.11 | – | 9.558
378.15 K | 3.8 | – | 7.71
388.15 K | 4.53 | – | 6.362
398.15 K | 5.31 | – | 5.356
408.15 K | 6.13 | – | 4.589
418.15 K | 6.92 | – | –
